# Measurements from ChEMBL document CHEMBL1177715, “Design and synthesis of androgen receptor full antagonists bearing a p-carborane cage: promising ligands for anti-androgen withdrawal syndrome” (J Med Chem, 2010).
# Active and inactive are the calls of the source. No cut-off for these calls is given here.
# Columns and labels:
# SC-3 = experiment: Growth inhibition of mouse SC3 cells after 3 days by WST-8 assay; assay type: functional, cell-based; conditions: SC-3, 72 h
# LNCaP = experiment: Growth stimulatory activity of human LNCAP cells; assay type: functional, cell-based
Compound,IC50 (SC-3),Activity (LNCaP)
C[C@](O)(CS(=O)(=O)c1ccc(F)cc1)C(=O)Nc1ccc(C#N)c(C(F)(F)F)c1 [(R)-BICALUTAMIDE],140 nM,
CC(C)C(=O)Nc1ccc([N+](=O)[O-])c(C(F)(F)F)c1 [FLUTAMIDE],720 nM,Active
CC(C)(O)C(=O)Nc1ccc([N+](=O)[O-])c(C(F)(F)F)c1 [HYDROXYFLUTAMIDE],240 nM,Active
